Assay results from publication PMC9600394, “Efficient Synthesis with Green Chemistry Approach of Novel Pharmacophores of Imidazole-Based Hybrids for Tumor Treatment: Mechanistic Insights from In Situ to In Silico” (Cancers, 2022).
Read-outs that look alike come from different tables or passages of the source.

How the values were obtained:
MDA-MB-231 = experiment: MTT assay in breast cancer cell line MDA-MB-231; conditions: for inhibition at 100 µM: read-out: MDA-MB-231 %Inhibition; for viability at 100 µM: read-out: MDA-MB-231 %Viability
Description: (§1) This cell line is ER, PR, and E-cadherin negative, and it lacks the growth factor receptor HER2. […] The normal human breast cell line (MCF-10A) was used as a control in the study. Cells were cultured in DMEM supplemented with 10% FBS and 1% antibiotics (100 U/mL penicillin). […] After 48 h of incubation, 20 μL of MTT solution (5 mg/mL) was pipetted into each well and incubated for another 4 h. The medium was later discarded, and the formazan precipitate was dissolved in DMSO. The absorbance of the mixtures was determined by a microplate reader at 570 nm. All the experiments were performed in triplicate, and the cytotoxicity was expressed as a percentage of cell viability and compared with untreated control cells [33]. % Viability=Absorbance of sample/Absorbance of control×100
(§2) The dose–response and IC50 values were calculated by IBM SPSS Statistics 26 software.
(§3) Simultaneously, the normal human breast epithelial cell line (MCF-10A) was used as a positive control. The MTT [3-(4,5-dimethylthiazol-2-yl)-2,5-diphenyltetrazolium bromide] assay was used to determine the decrease in cancer cell viability induced by the synthesized hybrids.

MCF-10A = experiment: MTT assay in normal breast cell line MCF-10A; conditions: for inhibition at 100 µM / IC50: Homo sapiens, MCF-10A, 48 h; for inhibition at 100 µM: read-out: MCF-10A %Inhibition; for IC50: read-out: MCF-10A IC50
Description: as §1, §2, §3

[1] = MTT assay in normal breast cell line MCF-10A; conditions: human
Description: as §1, §2, §3

hCA-II [2] = biological target: T1, hCA-II (Homo sapiens, UniProt P00918); experiment: Enzyme kinetic (mechanistic) studies on hCA-II; conditions: for Type of Inhibition (hCA-II): Lineweaver–Burk / Dixon plots; for Vmaxapp (hCA-II): maximum velocity of the enzyme in the presence of inhibitors
Description: In vitro inhibition of human CA (CA-II, and CA-IX) was performed in 96-well plate. Each well of the 96-well plate comprised 20 µL of the test compound (0.5 mM), 20 µL of the purified enzyme (0.1 mg/mL), 140 µL of the assay buffer (HEPES–tris, 20 mM), and 20 µL of the substrate (p-Nitrophenyl acetate; prepared in methanol), making a final volume of 200 µL. The assay procedure started with the incubation of the test compound, desired enzyme, and 140 µL of buffer for 15 min. […] All the in vitro testing results, e.g., percent inhibition, and the IC50 values were analyzed by EZ-Fit, which is a curve-fitting enzyme kinetics program (Perrella Scientific Inc., Amherst, MA, USA). All kinetic graphs were plotted by GraFit program (Horley, UK). Different parameters and their values, such as the values of intercepts, slopes, correlation coefficients, and their standard error means (SEMs), were calculated by the nonlinear regression analysis using the same program (GraFit program).
Certain parameters of the assay were changed in order to determine the mode of inhibition of compounds against specific enzymes.

hCA-II [3] = biological target: T1, hCA-II; experiment: In vitro inhibition of human CA-II (p-nitrophenyl acetate, 96-well plate); format: biochemical; conditions: for Inhibitory activity for hCA-II in words: compared to acetazolamide; for hCA-II IC50 ± SEM: unit not given
hCA-IX [4] = biological target: T2, hCA-IX (Homo sapiens, UniProt Q16790); experiment: In vitro inhibition of human CA-IX (p-nitrophenyl acetate, 96-well plate); format: biochemical; conditions: for IC50 / hCA-IX IC50 ± SEM: purified enzyme, substrate p-nitrophenyl acetate, 25 °C, µM from b1; for IC50: unit inferred, read-out: hCA-IX IC50 ± SEM; for Selectivity / specificity for hCA-IX (in words): hCA-IX versus hCA-II; for hCA-IX IC50 ± SEM: unit not given
hCA-IX [5] = biological target: T2, hCA-IX; experiment: Enzyme kinetic (mechanistic) studies on hCA-IX; format: biochemical; conditions: for Type of Inhibition (hCA-IX): Lineweaver–Burk / Dixon plots; for Kmapp (hCA-IX): Michaelis–Menten constant in the presence of inhibitors; for Vmaxapp (hCA-IX): maximum velocity of the enzyme in the presence of inhibitors
[6] = Homo sapiens, MDA-MB-231, 48 h, read-out: MDA-MB-231 IC50, 48 h, MTT
[7] = read-out: MDA-MB-231 IC50, 48 h, MTT
[8] = purified enzyme, substrate p-nitrophenyl acetate, 25 °C, µM from b1

Row | Structure (SMILES) | inhibition at 100 µM (MDA-MB-231; Homo sapiens, MDA-MB-231, 48 h) [%] | viability at 100 µM (MDA-MB-231; Homo sapiens, MDA-MB-231, 48 h) [%] | IC50 (MDA-MB-231; [6]) [µM] | inhibition at 100 µM (MCF-10A) [%] | IC50 (MCF-10A) [µM] | Inhibitory activity for hCA-II in words (hCA-II [3]) | melting point | IC50 (hCA-IX [4]) [µM] | IC50 (MDA-MB-231; [7]) [µM] | viability at 48 h, 100 µM [1] [%] | Ki (hCA-IX [5]) [µM] | Type of Inhibition (hCA-IX) (hCA-IX [5]) | Kmapp (hCA-IX) (hCA-IX [5]) | Vmaxapp (hCA-IX) (hCA-IX [5]) | IC50 (hCA-II [3]) [µM] | Selectivity / specificity for hCA-IX (in words) (hCA-IX [4]) | hCA-II IC50 ± SEM (hCA-II [3]; [8]) | further results
1 | Cc1ncc(C2=C(O)CCCC2=O)n1CCO [Compound 1, 3-hydroxy-2-(1-(2-hydroxyethyl)-2-methyl-1H-imidazol-5-yl) cyclohex-2-en-1-one] | 51.4 | 48.6 | 96 | 13.2 | > 100 | potent inhibitory activity | 186 to 190 °C | 23 ± 0.5 |  |  |  |  |  |  |  |  |  | viability at 48 h, 100 µM ([1]; MCF-10A normal breast epithelial cells): 86.8%; Ki (hCA-II [2]): 9.14 ± 0.08 µM; Type of Inhibition (hCA-II) (hCA-II [2]): competitive inhibition; Vmaxapp (hCA-II) (hCA-II [2]): 19.32; IC50 (hCA-II [3]; purified enzyme, substrate p-nitrophenyl acetate, 25 °C, unit inferred, µM from b1, read-out: hCA-II IC50 ± SEM): 11.6 ± 0.2 µM; Inhibitory activity for hCA-IX in words (hCA-IX [4]; compared to the standard acetazolamide): comparatively weak activity
2 | Cc1ncc(-c2c(O)n(C)c(=O)n(C)c2=O)n1CCOC(=O)c1ccccc1 [Compound 11, 2-(5-(6-hydroxy-1,3-dimethyl-2,4-dioxo-1,2,3,4-tetrahydropyrimidin-5-yl)-2-methyl-1H-imidazol-1-yl) ethyl benzoate] | 68.2 | 31.8 | 63.1 | 12.1 | > 100 | potent inhibitory activity | 180 to 185 °C | 11.9 ± 0.3 | 63.1 | 87.9 | 8.32 ± 0.05 | competitive inhibition | 0.42 | 23.01 | 15.3 ± 0.3 | selective inhibitors of hCA-IX |  | Ki (hCA-II [2]): 12.58 ± 0.04 µM; Type of Inhibition (hCA-II) (hCA-II [2]): competitive inhibition; Kmapp (hCA-II) (hCA-II [2]; Michaelis–Menten constant in the presence of inhibitors): 0.14; Vmaxapp (hCA-II) (hCA-II [2]): 19.32
3 | Cc1ncc(-c2c(O)[nH]c(=O)[nH]c2=O)[nH]1 [Compound 3, 6-hydroxy-5-(2-methyl-1H-imidazol-5-yl) pyrimidine-2,4(1H,3H)-dione] | 61.2 | 38.8 | 76.1 | 14.3 | > 100 | weak activity | 215 °C (dec.) | 10.9 ± 0.8 |  | 85.7 | 8.01 ± 0.01 | competitive inhibition | 0.38 | 23.01 | 30.7 ± 3.4 |  |  | 
4 | Cc1ncc(-c2c(O)[nH]c(=S)[nH]c2=O)n1CCOC(=O)c1ccccc1 [Compound 7, 2-(5-(6-hydroxy-4-oxo-2-thioxo-1,2,3,4-tetrahydropyrimidin-5-yl)-2-methyl-1H-imidazol-1-yl) ethyl benzoate] | 69.2 | 30.8 | 64 | 13.2 | > 100 |  | 225 to 230 °C | 9.6 ± 0.2 | 64 | 86.8 | 7.32 ± 0.02 | competitive inhibition |  | 23.01 |  | selective inhibitors of hCA-IX | Inactive | Inhibitory activity for hCA-IX in words (hCA-IX [4]): strong inhibitory activity
5 | Cc1ncc(-c2c(O)[nH]c(=S)[nH]c2=O)[nH]1 [Compound 4, 6-hydroxy-5-(2-methyl-1H-imidazol-5-yl)-2-thioxo-2,3-dihydropyrimidin-4(1H)-one] | 60.5 | 39.5 | 75.7 | 17.9 | > 100 | weak activity |  | 17.1 ± 0.6 |  | 82.1 | 15.02 ± 0.04 | competitive inhibition | 0.43 | 23.01 | 31.1 ± 1.3 |  |  | 
6 | Cc1ncc(-c2c(O)n(C)c(=O)n(C)c2=O)[nH]1 [Compound 6, 6-hydroxy-1,3-dimethyl-5-(2-methyl-1H-imidazol-5-yl) pyrimidine-2,4(1H,3H)-dione] | 58.4 | 41.6 | 79.4 | 13.2 | > 100 |  |  |  |  | 86.8 |  |  |  |  |  |  | Inactive | hCA-IX IC50 ± SEM (hCA-IX [4]): Inactive
7 | Cc1ncc(-c2c(O)[nH]c(=O)[nH]c2=O)n1CCOC(=O)c1ccccc1 [Compound 5, 2-(5-(6-hydroxy-2,4-dioxo-1,2,3,4-tetrahydropyrimidin-5-yl)-2-methyl-1H-imidazol-1-yl) ethyl benzoate] | 82.1 | 17.9 | 53.6 | 20.5 | > 100 |  |  |  |  | 79.5 |  |  |  |  |  |  | Inactive | Anticancer/cytotoxic activity in MDA-MB-231 in words (MDA-MB-231; MTT): excellent anticancer/cytotoxic activity; Toxicity to normal breast cells (MCF-10A) in words (MCF-10A; MTT): no toxicity; hCA-IX IC50 ± SEM (hCA-IX [4]): Inactive
8 | Cc1ncc(-c2c(O)[nH]c(=S)[nH]c2=O)n1CCO [Compound 9, 6-hydroxy-5-(1-(2-hydroxyethyl)-2-methyl-1H-imidazol-5-yl)-2-thioxo-2,3-dihydropyrimidin-4(1H)-one] | 73.5 | 26.5 | 58.6 | 13.2 | > 100 | weak activity |  | 19.9 ± 0.8 | 58.6 | 84.5 | 17.02 ± 0.02 | competitive inhibition | 0.47 | 23.01 | 27.5 ± 1.3 |  |  | 
9 | Cc1ncc(-c2c(O)[nH]c(=O)[nH]c2=O)n1CCO [Compound 8, 6-hydroxy-5-(1-(2-hydroxyethyl)-2-methyl-1H-imidazol-5-yl) pyrimidine-2,4 (1H, 3H)-dione] | 77.8 | 22.2 | 55.6 | 15.5 | > 100 |  |  | 32.2 ± 1 |  | 84.5 |  |  |  |  |  | selective inhibitors of hCA-IX | Inactive | Inhibitory activity for hCA-IX in words (hCA-IX [4]): comparatively weak activity
10 | Cc1ncc(-c2c(O)n(C)c(=O)n(C)c2=O)n1CCO [Compound 10, 6-hydroxy-5-(1-(2-hydroxyethyl)-2-methyl-1H-imidazol-5-yl)-1,3-dimethylpyrimidine-2,4(1H,3H)-dione] | 75.5 | 24.5 | 60.9 | 15.1 | > 100 |  | 163 to 165 °C | 14.8 ± 0.1 |  | 84.9 | 13.24 ± 0.03 | competitive inhibition | 0.40 | 23.01 |  | selective inhibitors of hCA-IX | Inactive | 
